Source: patent publication US7897582B2, “Oligonucleotide compositions and methods for the modulation of the expression of B7 protein” (Isis Pharmaceuticals, Inc., priority 2003, dated 2011)
Strand notation (5' to 3'): a small letter for the sugar, then the base; units joined by * are phosphorothioate-linked, units joined directly phosphodiester-linked; [ ] holds rarer units or linkages, { } end groups; capitals alone tell only the bases. e = 2'-O-(2-methoxyethyl) (MOE); [5mC] = 5-methylcytosine; d = 2'-deoxy (DNA)

Tests used:
Mouse B7-2 mRNA = Mouse B7-2 mRNA expression, screened as in Example 4; format: cell-based; set-up: % mRNA INHIBITION: concentration or dose not given beside the values; conditions: for % mRNA INHIBITION: screened as in Example 4; for % mRNA EXPRESSION: screened as in Example 4, basal = 100.0%
Protocol: For ribonuclease protection assays, cells were harvested 18 hours after completion of oligonucleotide treatment using a Totally RNA™ kit (Ambion, Austin, Tex.). The probes for the assay were generated from plasmids pcB7-2 (linearized by digestion with Bgl II) and pTRI-b-actin (Ambion Inc., Austin, Tex.). In vitro transcription of the linearized plasmid from the SP6 promoter was performed in the presence of α-^32P-UTP (800 Ci/mmole) yielding an antisense RNA complementary to the 3′ end of B7-2 (position 1044-1391). The probe was gel-purified after treatment with DNase I to remove DNA template. Ribonuclease protection assays were carried out using an RPA II™ kit (Ambion) according to the manufacturer's directions. Total RNA (5 μg) was hybridized overnight, at 42° C., with 10^5 cpm of the B7-2 probe or a control beta-actin probe. The hybridization reaction was then treated, at 37° C. for 30 minutes, with 0.4 units of RNase A and 2 units of RNase T1. Protected RNA was precipitated, resuspended in 10 μL of gel loading buffer and electrophoresed on a 6% acrylamide gel with 50% w/v urea at 20 W. The gel was then exposed and the lanes quantitated using a PhosphorImager (Molecular Dynamics, Sunnyvale, Calif.) essentially according to the manufacturer's instructions.
Oligonucleotides were screened as described in Example 4.

Mouse B7-1 mRNA = Mouse B7-1 mRNA expression, screened as in Example 4; format: cell-based; set-up: % mRNA INHIBITION: concentration or dose not given beside the values; conditions: Table 10

| Substance | % mRNA INHIBITION (Mouse B7-2 mRNA) | % mRNA EXPRESSION (Mouse B7-2 mRNA) | % mRNA EXPRESSION (Mouse B7-1 mRNA) | % mRNA INHIBITION (Mouse B7-1 mRNA) |
| --- | --- | --- | --- | --- |
| 18084 (antisense eG*e[5mC]*eT*eG*e[5mC]*d[5mC]*dT*dA*d[5mC]*dA*dG*dG*dA*dG*d[5mC]*e[5mC]*eA*e[5mC]*eT*e[5mC]) [compound 18084] | 63.6% | 36.4% | – | – |
| 18085 (antisense eT*e[5mC]*eA*eA*eG*dT*d[5mC]*d[5mC]*dG*dT*dG*d[5mC]*dT*dG*d[5mC]*e[5mC]*eT*eA*e[5mC]*eA) [compound 18085] | 65.0% | 35.0% | – | – |
| 18086 (antisense eG*eT*e[5mC]*eT*eA*d[5mC]*dA*dG*dG*dA*dG*dT*d[5mC]*dT*dG*eG*eT*eT*eG*eT) [compound 18086] | 59.9% | 40.1% | – | – |
| 18087 (antisense eA*eG*e[5mC]*eT*eT*dG*d[5mC]*dG*dT*d[5mC]*dT*d[5mC]*d[5mC]*dA*d[5mC]*eG*eG*eA*eA*eA) [compound 18087] | 57.9% | 42.1% | – | – |
| 18088 (antisense eT*e[5mC]*eA*e[5mC]*eA*d[5mC]*dT*dA*dT*d[5mC]*dA*dA*dG*dT*dT*eT*e[5mC]*eT*e[5mC]*eT) [compound 18088] | 47.7% | 52.3% | – | – |
| 18090 (antisense eG*eT*eG*eA*eA*dG*dT*d[5mC]*dG*dT*dA*dG*dA*dG*dT*e[5mC]*e[5mC]*eA*eG*eT) [compound 18090] | 63.4% | 36.6% | – | – |
| 18091 (antisense eG*eT*eG*eA*e[5mC]*d[5mC]*dT*dT*dG*d[5mC]*dT*dT*dA*dG*dA*e[5mC]*eG*eT*eG*e[5mC]) [compound 18091] | 62.9% | 37.1% | – | – |
| 18092 (antisense e[5mC]*eA*eT*e[5mC]*eT*dT*d[5mC]*dT*dT*dA*dG*dG*dT*dT*dT*e[5mC]*eG*eG*eG*eT) [compound 18092] | 41.1% | 58.9% | – | – |
| 18093 (antisense eG*eG*e[5mC]*eT*eG*dT*dT*dG*dG*dA*dG*dA*dT*dA*d[5mC]*eT*eG*eA*eA*e[5mC]) [compound 18093] | 67.3% | 32.7% | – | – |
| 18094 (antisense eG*eG*eG*eA*eA*dT*dG*dA*dA*dA*dG*dA*dG*dA*dG*eA*eG*eG*e[5mC]*eT) [compound 18094] | 36.2% | 63.8% | – | – |
| 18095 (antisense eA*e[5mC]*eA*eT*eA*d[5mC]*dA*dA*dT*dG*dA*dT*dG*dA*dG*e[5mC]*eA*eG*e[5mC]*eA) [compound 18095] | 65.7% | 34.3% | – | – |
| 18096 (antisense eG*eT*e[5mC]*eT*e[5mC]*dT*d[5mC]*dT*dG*dT*d[5mC]*dA*dG*d[5mC]*dG*eT*eT*eA*e[5mC]*eT) [compound 18096] | 67.7% | 32.3% | – | – |
| 18098 (antisense eG*eG*eA*eT*eT*dG*d[5mC]*d[5mC]*dA*dA*dG*d[5mC]*d[5mC]*d[5mC]*dA*eT*eG*eG*eT*eG) [compound 18098] | 67.8% | 32.2% | – | – |
| 18099 (antisense eG*e[5mC]*eA*eA*eT*dT*dT*dG*dG*dG*dG*dT*dT*d[5mC]*dA*eA*eG*eT*eT*e[5mC]) [compound 18099] | 33.2% | 66.8% | – | – |
| 18100 (antisense e[5mC]*eA*eA*eT*e[5mC]*dA*dG*d[5mC]*dT*dG*dA*dG*dA*dA*d[5mC]*eA*eT*eT*eT*eT) [compound 18100] | 32.8% | 67.2% | – | – |
| 18101 (antisense eT*eT*eT*eT*eG*dT*dA*dT*dA*dA*dA*dA*d[5mC]*dA*dA*eT*e[5mC]*eA*eT*eA) [compound 18101] | 11.1% | 88.9% | – | – |
| 18102 (antisense e[5mC]*e[5mC]*eT*eT*e[5mC]*dA*d[5mC]*dT*d[5mC]*dT*dG*d[5mC]*dA*dT*dT*eT*eG*eG*eT*eT) [compound 18102] | 66.2% | 33.8% | – | – |
| 18103 (antisense eT*eG*e[5mC]*eA*eT*dG*dT*dT*dA*dT*d[5mC]*dA*d[5mC]*d[5mC]*dA*eT*eA*e[5mC]*eT*e[5mC]) [compound 18103] | 69.8% | 30.2% | – | – |
| 18104 (antisense eA*eG*eA*eG*eA*dA*dA*d[5mC]*dT*dA*dG*dT*dA*dA*dG*eA*eG*eT*e[5mC]*eT) [compound 18104] | – | – | 60.0% | 40.0% |
| 18105 (antisense eT*eG*eG*e[5mC]*eA*dT*d[5mC]*d[5mC]*dA*d[5mC]*d[5mC]*d[5mC]*dG*dG*d[5mC]*eA*eG*eA*eT*eG) [compound 18105] | – | – | 32.0% | 68.0% |
| 18106 (antisense TCGAGAAACAGAGATGTAGA; listed as DNA, chemistry not fully specified) [compound 18106] | – | – | 51.0% | 49.0% |
| 18107 (antisense eT*eG*eG*eA*eG*d[5mC]*dT*dT*dA*dG*dG*d[5mC]*dA*d[5mC]*d[5mC]*eT*e[5mC]*e[5mC]*eT*eA) [compound 18107] | – | – | 58.0% | 42.0% |
| 18108 (antisense eT*eG*eG*eG*eG*dA*dA*dA*dG*d[5mC]*d[5mC]*dA*dG*dG*dA*eA*eT*e[5mC]*eT*eA) [compound 18108] | – | – | 82.0% | 18.0% |
| 18109 (antisense e[5mC]*eA*eG*e[5mC]*eA*d[5mC]*dA*dA*dA*dG*dA*dG*dA*dA*dG*eA*eA*eT*eG*eA) [compound 18109] | – | – | 45.5% | 54.5% |
| 18111 (antisense eA*eA*eG*eT*e[5mC]*d[5mC]*dG*dG*dT*dT*d[5mC]*dT*dT*dA*dT*eA*e[5mC]*eT*e[5mC]*eG) [compound 18111] | – | – | 38.0% | 62.0% |
| 18112 (antisense eG*e[5mC]*eA*eG*eG*dT*dA*dA*dT*d[5mC]*d[5mC]*dT*dT*dT*dT*eA*eG*eT*eG*eT) [compound 18112] | – | – | 42.0% | 58.0% |
| 18114 (antisense e[5mC]*eG*eA*eA*eT*d[5mC]*d[5mC]*dT*dG*d[5mC]*d[5mC]*d[5mC]*d[5mC]*dA*dA*eA*eG*eA*eG*e[5mC]) [compound 18114] | – | – | 25.6% | 74.4% |
| 18115 (antisense eA*e[5mC]*eT*eG*e[5mC]*dG*d[5mC]*d[5mC]*dG*dA*dA*dT*d[5mC]*d[5mC]*dT*eG*e[5mC]*e[5mC]*e[5mC]*e[5mC]) [compound 18115] | – | – | 33.5% | 66.5% |
